How the values were obtained:
PC-3 cells [1] = assay: Cell invasion, Transwell chambers with Matrigel, PC-3 cells; type: cell-based, human; conditions: DHMBA 1, 10, or 100 μM, 24 hours
Method: The cell invasion activity of the prostate cancer PC-3 and DU-145 cells was measured using Transwell chambers (the catalogue number CLS3464-48EA of Corning, Life Sciences, USA). A chamber was placed in each well of the 24-hole plate. 50 μl of Matrigel (Corning Life Sciences, Cat. No. 356230, USA) was added to the upper surface of the chambers. After drying the gel, 500 μl of a suspension of the PC-3 or DU-145 cells (the cell number of 2.5×10^4/ml, the DMEM not containing FBS) was added to the upper surface of the gel. This cell suspension contained the DHMBA (0, 1, 10, or 100 μM). After the addition of the cell suspension to the chambers, it was incubated for one hour to cause the cells to adhere. 0.75 ml of the culture fluid not containing the FBS and a culture fluid containing 10% of FBS were added to the lower surface of the chambers. The cells on the plate were cultured under 5% of CO2, 95% of air, at 37° C., for 24 hours. […] After the drying, the number of the stained cells was counted by the microscope (Olympus MTV-3, Olympus Corporation, Tokyo, Japan). […]
The cell invasion activities of the prostate cancer PC-3 and DU-145 cells were measured using the Transwell chambers. […] After the drying, the number of the stained cells was counted by the microscope (Olympus MTV-3, Olympus Corporation, Tokyo, Japan). […]

PC-3 cells [2] = assay: Cell growth of PC-3 cells (cell counting); type: cell-based, human
Method: The PC-3 and DU-145 cells (the cell number of 1×10^5/in 1 ml of a culture fluid per hole using a 24-hole plate) were cultured in a DMEM culture fluid (containing 10% of FBS, 1% of P/S, and 1% of fungizone) containing the DHMBA (1 and 10 μM) under 5% of CO2, at 37° C., for one, two, three, four, and six days. […] After the culture, 0.1 ml of 0.05% trypsin-EDTA solution obtained by dissolving the cells adhering to the bottom surface of the culture dish in PBS (Thermo Fisher Scientific, Waltham, MA, USA) not containing Ca^2+/Mg^2+ was added, incubation was performed at 37° C. for two minutes to release the adhering cells, and 0.9 ml of the DMEM culture fluid containing 10% of FBS and 1% of P/S was added to stop the reaction. The cell number in the cell suspension was counted by the method described in the item of “Measurement of Cell Number.”
After the culture of the cells, 0.1 ml of 0.05% trypsin-EDTA solution obtained by dissolving the cells adhering to the bottom surface of the culture dish in PBS (Thermo Fisher Scientific, Waltham, MA, USA) not containing Ca^2+/Mg^2+ was added, incubation was performed at 37° C. for two minutes to release the adhering cells, and 0.9 ml of the DMEM culture fluid containing 10% of FBS and 1% of P/S was added to stop the reaction. The visible cells were counted by the Olympus MTV-3 microscope using a hemocytometer (Sigma-Aldrich).
FIG. 1(C) is a diagram in which the PC-3 cells (1×10^5 cells/per well of a 24-well plate) were cultured under 5% of CO2, at 37° C., for one to six days in a DMEM culture fluid (containing 10% of FBS, 1% of P/S, and 1% of fungizone) containing the DHMBA (10 μM).
In FIGS. 1(D) and 1(E), the PC-3 cells (1×10^5 cells/per well of a 24-well plate) were cultured under 5% of CO2, at 37° C., for three (FIG. 1D) and six (FIG. 1E) days in a DMEM culture fluid (containing 10% of FBS, 1% of P/S, and 1% of fungizone) containing the DHMBA (0.01, 0.1, 1, 10, 100, and 1000 μM). After the culture, the cells adhered to the bottom surface of the dish were removed and counted. […] 1-way ANOVA, Tukey-Kramer post-test.
FIGS. 3(A) and 3(B) are diagrams in which the PC-3 cells (1×10^5 cells/ml/per well of a 24-well plate) were cultured under 5% of CO2, at 37° C., for three days in a DMEM culture fluid (containing 10% of FBS, 1% of P/S, and 1% of fungizone) containing the DHMBA (10 μM) containing cell cycle inhibitors, roscovitine (10 and 100 nM), butyrate (10 and 100 μM), and sulforaphane (1 and 10 nM).
After the culture, the cells adhered to the dish were removed and counted. […] 1-way ANOVA, Tukey-Kramer post-test.
In the drawing, the PC-3 cells (1×10^5/in 1 ml of a culture fluid per hole using a 24-hole plate) were cultured under 5% of CO2, at 37° C., for three days in a DMEM culture fluid (containing 10% of FBS, 1% of P/S, and 1% of fungizone) in the presence of the DHMBA (10 μM) and an aryl hydrocarbon receptor inhibitor CH223191 (1, 10, or 25 μM) to examine the action on cell growth.

For COc1c(O)cc(CO)cc1O [DHMBA, 3,5-dihydroxy-4-methoxybenzyl alcohol], the invasion (PC-3 cells [1]) was “significantly inhibited”, the “effect on cell growth at low concentration” value (PC-3 cells [2]; DHMBA 0.01 μM) was “significant effect” and the “cell growth inhibitory effect of DHMBA in the presence of CH223191” value (PC-3 cells [2]; DHMBA 10 μM with CH223191 1, 10, or 25 μM, three days) was “found not to be expressed”. For the same compound, the “cell growth inhibitory effect of DHMBA in the presence of cell cycle inhibitors” value (PC-3 cells [2]; DHMBA 10 μM with roscovitine, butyrate or sulforaphane, three days) was “not observed”, the “cell growth inhibitory effect of DHMBA in the presence of signaling inhibitors” value (PC-3 cells [2]; DHMBA 10 μM with wortmannin, PD98059 or staurosporine, three days) was “no significant cell growth inhibitory effect” and the cell growth (PC-3 cells [2]; DHMBA 10 μM, one to six days) was “inhibited”.

Source: patent publication US20240350430A1, “GROWTH INHIBITOR OF METASTATIC HUMAN PROSTATE CANCER CELLS” (Watanabe Oyster Laboratory Co., Ltd., priority 2021, published 2024)
